From ChEMBL document CHEMBL4418308, “cGAS ANTAGONIST COMPOUNDS” (2017)
pIC50: −log10 of the molar value.

Tests used:
Cyclic GMP-AMP synthase [1] = biological target: T1, Cyclic GMP-AMP synthase (Homo sapiens, UniProt Q8N884); experiment: Inhibition of CGAS in human THP1 cells transfected with interferon stimulatory DNA and measured after 16 hrs by Gaussia luciferase reporter gene assay; type: cell-based
Cyclic GMP-AMP synthase [2] = biological target: T1, Cyclic GMP-AMP synthase; experiment: Inhibition of recombinant His6-SUMO tagged human CGAS expressed in Escherichia coli BL21/pLys cells incubated for 20 mins by Kinase Glo chemiluminescence assay
Cyclic GMP-AMP synthase [3] = biological target: T1, Cyclic GMP-AMP synthase; experiment: Inhibition of CGAS in human THP1 cells transfected with mock Sendai virus and measured after 16 hrs by Gaussia luciferase reporter gene assay; type: cell-based

T1 sequence (Q8N884 whole entry): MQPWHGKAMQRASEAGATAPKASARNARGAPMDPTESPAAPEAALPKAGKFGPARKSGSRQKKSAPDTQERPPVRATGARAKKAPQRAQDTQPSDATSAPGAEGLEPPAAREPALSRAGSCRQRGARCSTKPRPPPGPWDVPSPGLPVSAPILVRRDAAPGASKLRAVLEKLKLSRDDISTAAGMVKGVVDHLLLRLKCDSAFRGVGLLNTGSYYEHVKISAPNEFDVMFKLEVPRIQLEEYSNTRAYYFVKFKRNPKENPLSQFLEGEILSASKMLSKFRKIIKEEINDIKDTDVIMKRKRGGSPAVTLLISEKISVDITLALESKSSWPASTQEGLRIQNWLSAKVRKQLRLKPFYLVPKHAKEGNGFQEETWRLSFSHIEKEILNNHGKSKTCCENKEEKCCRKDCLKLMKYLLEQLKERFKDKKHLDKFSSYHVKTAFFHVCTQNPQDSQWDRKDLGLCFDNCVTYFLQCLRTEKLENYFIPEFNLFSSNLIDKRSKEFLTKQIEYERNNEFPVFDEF

Row | Compound | pIC50 (Cyclic GMP-AMP synthase [1]) | pIC50 (Cyclic GMP-AMP synthase [2]) | pIC50 (Cyclic GMP-AMP synthase [3])
1 | O=C1/C(=C/c2cc(OCc3cnc(NCc4cccnc4)nc3)c(O)c(F)c2Br)Sc2ncccc21 | 5.00 to 5.60 | ≥ 6.30 | ≤ 5.00
2 | CN1C(=O)S/C(=C\c2cc(OCc3cnc4ccccc4c3)c(O)cc2Br)C1=O | 5.00 to 5.60 | ≤ 5.00 | ≤ 5.00
3 | CN1C(=O)S/C(=C\c2cc(OC(F)(F)F)c(O)cc2Br)C1=O | ≥ 5.60 | ≤ 5.00 | 5.00 to 5.60
4 | CN1C(=O)S/C(=C\c2cc(OCc3cnc(N)nc3C3CC3)c(O)cc2Br)C1=O | 5.00 to 5.60 | ≥ 6.30 | ≤ 5.00
5 | CN1C(=O)S/C(=C\c2cc(OCc3cnc(N4CCNCC4)nc3)c(O)cc2Br)C1=O | 5.00 to 5.60 | ≥ 6.30 | ≤ 5.00
6 | CN1C(=O)S/C(=C\c2cc(OCc3cn(-c4ccncc4)nn3)c(O)cc2Br)C1=O | 5.00 to 5.60 | ≤ 5.00 | ≤ 5.00
7 | C[S+]([O-])c1ncc(COc2cc(/C=C3\Sc4ncccc4C3=O)c(Br)c(F)c2O)cn1 (stereo unspecified) | 5.00 to 5.60 | 5.00 to 6.30 | ≤ 5.00
8 | CC(C)C(=O)N1CCC(COc2cc(/C=C3\SC(=O)N(C)C3=O)c(Br)cc2O)CC1 | 5.00 to 5.60 | ≤ 5.00 | ≤ 5.00
9 | COc1cc(/C=C2\Sc3ncccc3C2=O)c(Br)c(F)c1O | 5.00 to 5.60 | ≥ 6.30 | ≤ 5.00
10 | O=C1/C(=C/c2cc(OCc3cnc(NCc4ccccn4)nc3)c(O)c(F)c2Br)Sc2ncccc21 | ≤ 5.00 | ≥ 6.30 | ≤ 5.00
11 | CN1C(=O)S/C(=C\c2cc(OCc3cnc[nH]3)c(O)cc2Br)C1=O | 5.00 to 5.60 | ≤ 5.00 | ≤ 5.00
12 | CN1C(=O)S/C(=C\c2cc3c(-c4cnc(N)nc4)c[nH]c3c(F)c2Br)C1=O | 5.00 to 5.60 | ≥ 6.30 | ≤ 5.00
13 | CN1C(=O)S/C(=C\c2cc(OCc3cnc(NC4CC4)nc3)c(O)cc2Br)C1=O | ≥ 5.60 | 5.00 to 6.30 | ≤ 5.00
14 | CNc1ncc(COc2cc(/C=C3\Sc4ncccc4C3=O)c(Br)c(F)c2O)cn1 | 5.00 to 5.60 | ≥ 6.30 | ≤ 5.00
15 | Cc1ncc(COc2cc(/C=C3\Sc4ncccc4C3=O)c(Br)c(F)c2O)cn1 | ≥ 5.60 | ≥ 6.30 | ≤ 5.00
16 | CN1C(=O)S/C(=C\c2cc(Oc3ccc(N)nc3)c(O)cc2Br)C1=O | 5.00 to 5.60 | ≤ 5.00 | ≤ 5.00
17 | CN1C(=O)S/C(=C\c2cc(OCc3ccc(N)nc3)c(O)cc2Br)C1=O | 5.00 to 5.60 | ≤ 5.00 | 5.00 to 5.60
18 | CC(C)n1ccc(COc2cc(/C=C3\SC(=O)N(C)C3=O)c(Br)cc2O)cc1=O | 5.00 to 5.60 | ≤ 5.00 | ≤ 5.00
19 | COc1cc(/C=C2\SC(=O)N(C)C2=O)c(Br)c(F)c1O | 5.00 to 5.60 | ≥ 6.30 | ≤ 5.00
20 | CN1C(=O)S/C(=C\c2cc(OCc3cnc([S+](C)[O-])nc3)c(O)cc2Br)C1=O (stereo unspecified) | 5.00 to 5.60 | ≥ 6.30 | ≤ 5.00
21 | CN1C(=O)S/C(=C\c2cc(OCc3cnc(NCc4cccnc4)nc3)c(O)cc2Br)C1=O | 5.00 to 5.60 | ≥ 6.30 | ≤ 5.00
22 | CN1C(=O)S/C(=C\c2cc(OCc3cnc(Cl)nc3)c(O)cc2Br)C1=O | 5.00 to 5.60 | ≥ 6.30 | ≤ 5.00
23 | CN1C(=O)S/C(=C\c2cc(OCc3cnc(N)nc3)c(Oc3cnc(N)s3)cc2Br)C1=O | 5.00 to 5.60 | 5.00 to 6.30 | ≤ 5.00
24 | CN1C(=O)S/C(=C\c2cc(OCC3CCCCC3)c(O)cc2Br)C1=O | 5.00 to 5.60 | ≤ 5.00 | 5.00 to 5.60
25 | CN1C(=O)S/C(=C\c2cc(OCc3cnc(NCc4ccccn4)nc3)c(O)cc2Br)C1=O | 5.00 to 5.60 | ≥ 6.30 | ≤ 5.00
26 | CN1C(=O)S/C(=C\c2cc(OCc3ncc(N)cn3)c(O)cc2Br)C1=O | 5.00 to 5.60 | ≤ 5.00 | ≤ 5.00
27 | COCCNc1ncc(COc2cc(/C=C3\SC(=O)N(C)C3=O)c(Br)c(F)c2O)cn1 | 5.00 to 5.60 | ≥ 6.30 | ≤ 5.00
28 | CC(Oc1cc(/C=C2\SC(=O)N(C)C2=O)c(Br)cc1O)c1cncnc1N (stereo unspecified) | 5.00 to 5.60 | ≥ 6.30 | ≤ 5.00
29 | Nc1ncc(COc2cc(/C=C3\Sc4ncccc4C3=O)c(Br)c(F)c2O)cn1 | ≥ 5.60 | ≥ 6.30 | ≤ 5.00
30 | CN1C(=O)S/C(=C\c2cc(OCc3cnc(NCc4ccncc4)nc3)c(O)cc2Br)C1=O | 5.00 to 5.60 | ≥ 6.30 | ≤ 5.00

Next, values leading:

Row | pIC50 (Cyclic GMP-AMP synthase [1]) | pIC50 (Cyclic GMP-AMP synthase [2]) | pIC50 (Cyclic GMP-AMP synthase [3]) | Compound
31 | ≥ 5.60 | ≥ 6.30 | ≤ 5.00 | CN1C(=O)S/C(=C\c2cc(OCc3cnc(NCCO)nc3)c(O)c(F)c2Br)C1=O
32 | ≥ 5.60 | ≥ 6.30 | ≤ 5.00 | CN1C(=O)S/C(=C\c2cc(OCc3ccnc4[nH]cnc34)c(O)cc2Br)C1=O
33 | ≥ 5.60 | ≥ 6.30 | ≤ 5.00 | CN1C(=O)S/C(=C\c2cc(OCCc3cnc(N)nc3)c(O)c(F)c2Br)C1=O
34 | ≥ 5.60 | ≥ 6.30 | ≤ 5.00 | [2H]C([2H])(Oc1cc(/C=C2\SC(=O)N(C)C2=O)c(Br)cc1O)c1cnc(N)nc1
35 | 5.00 to 5.60 | ≥ 6.30 | ≤ 5.00 | O=C1/C(=C/c2cc(OCc3cncnc3)c(O)cc2Br)Sc2ncccc21
36 | 5.00 to 5.60 | ≥ 6.30 | ≤ 5.00 | COCCNc1ncc(COc2cc(/C=C3\Sc4ncccc4C3=O)c(Br)cc2O)cn1
37 | ≥ 5.60 | ≥ 6.30 | ≤ 5.00 | COc1cc(/C=C2\SC(=O)N(C)C2=O)c(Br)cc1O
38 | ≥ 5.60 | ≥ 6.30 | ≤ 5.00 | CN1C(=O)S/C(=C\c2cc(OCc3cnc(N)nc3)c(O)c(F)c2Br)C1=O
39 | ≥ 5.60 | ≥ 6.30 | ≤ 5.00 | Nc1ncc(COc2cc(/C=C3\Sc4ncccc4C3=O)c(Br)cc2O)cn1
40 | ≥ 5.60 | ≥ 6.30 | ≤ 5.00 | O=C1/C(=C/c2cc(OCc3cnc(NCCO)nc3)c(O)cc2Br)Sc2ncccc21
41 | ≤ 5.00 | ≥ 6.30 | ≤ 5.00 | CC(Oc1cc(/C=C2\SC(=O)N(C)C2=O)c(Br)c(F)c1O)C(O)c1cnc(N)nc1 (stereo unspecified)
42 | ≥ 5.60 | ≥ 6.30 | ≤ 5.00 | CN1C(=O)S/C(=C\c2cc(OCc3cnc(N)nc3)c(O)cc2Br)C1=O
43 | ≥ 5.60 | ≥ 6.30 | ≤ 5.00 | CN1C(=O)S/C(=C\c2cc(OCc3cn[nH]c3)c(O)cc2Br)C1=O
44 | ≤ 5.00 | ≥ 6.30 | ≤ 5.00 | CN1C(=O)S/C(=C\c2cc3c(Cc4cnc(N)nc4)c[nH]c3c(F)c2Br)C1=O
45 | 5.00 to 5.60 | 5.00 to 6.30 | ≤ 5.00 | O=C1/C(=C/c2cc(OC(F)(F)F)c(O)cc2Br)Sc2ncccc21
46 | ≥ 5.60 | ≥ 6.30 | ≤ 5.00 | CN1C(=O)S/C(=C\c2cc(O/C=C/c3cnc(N)nc3)c(O)c(F)c2Br)C1=O
47 | ≥ 5.60 | ≥ 6.30 | ≤ 5.00 | CN1C(=O)S/C(=C\c2cc(OCc3cncnc3)c(O)cc2Br)C1=O
48 | ≥ 5.60 | ≥ 6.30 | ≤ 5.00 | CN1C(=O)S/C(=C\c2cc(OCc3cncnc3N)c(O)cc2Br)C1=O
49 | ≥ 5.60 | ≥ 6.30 | 5.00 to 5.60 | C[S+]([O-])c1ncc(COc2cc(/C=C3\Sc4ncccc4C3=O)c(Br)cc2O)cn1 (stereo unspecified)
50 | ≥ 5.60 | ≥ 6.30 | ≤ 5.00 | Cc1nc(N)ncc1COc1cc(/C=C2\SC(=O)N(C)C2=O)c(Br)c(F)c1O
51 | ≥ 5.60 | ≥ 6.30 | ≤ 5.00 | CNc1ncc(COc2cc(/C=C3\SC(=O)N(C)C3=O)c(Br)cc2O)cn1
52 | 5.00 to 5.60 | ≥ 6.30 | ≤ 5.00 | O=C1/C(=C/c2cc(CC(F)(F)F)c(O)cc2Br)Sc2ncccc21
